Source: the supplement of paper PMC10784567
± gives the standard deviation of the averaged measurements.

Compound: C=C1C[C@H]2C=Nc3cc(OCCCCCOc4cc5c(cc4OC)C(=O)N4CC(=C)C[C@H]4C=N5)c(OC)cc3C(=O)N2C1 [SG2057]
Experiment: absolute IC50 (cell viability, CellTiter-Glo); higher = less potent
Details: treatment time: 3 days
Procedure: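 Large cancer cell line panel screens in 384-well plates. Cells were treated for 3 days with a 9-point dose titration of the free PBD dimer SG2057; viability was read with CellTiter-Glo. Absolute IC50 came from a four-parameter Hill fit normalised to the median of vehicle (DMSO) wells. Several independent screens (projects) per cell line are averaged; values in µM, lowest-dose floor about 1.524e-5 µM.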

Test System | absolute IC50 [nM]
Hep 3B2.1-7 | 3.83 ± 2.6
Hep G2 | 2.2
Hepa 1-6 | 0.286
Hs 38.T | 1.36 ± 1.7
Hs 294T | 0.469 ± 0.75
Hs 578T | 1.51 ± 1.3
Hs 683 | 0.626 ± 1
Hs 695T | 0.547 ± 0.21
Hs 746T | 1.81 ± 3.4
Hs 839.T | 6.79
Hs 852.T | 0.582 ± 0.063
Hs 895.T | 7.53
HuCCT1 | 2.63 ± 2.5
ID8 | 0.292
IGR-1 | 0.75 ± 0.91
IGR-37 | 0.339 ± 0.47
IGR-39 | 0.0981 ± 0.02
IGROV-1 | 1.14 ± 1.6
IM-95 | 2.41
IM-95m | 3.43
Ishikawa | 0.311
JC | 0.463
JHH-1 | 2.07 ± 3.1
JHH-2 | 4.84 ± 8.1

Test System | absolute IC50 [nM]
JHH-4 | 0.555 ± 0.54
JHH-5 | 0.248
JHH-6 | 3.4
JHH-7 | 1.94
JJ012 | 6.35
JJ012 (DODx) | 1.42
JJN-3 | 0.816 ± 1.7
JVM-2 | 0.374 ± 0.48
K-562 | 0.617 ± 0.68
KALS-1 | 0.336
KARPAS-299 | 0.581 ± 1.1
KARPAS-620 | 2.96
KARPAS-1106P | 0.158 ± 0.045
KATO III | 5.09
KCI-MOH1 | 3.23 ± 2
KE-97 | 0.193 ± 0.11
KELLY | 0.12
KG-1 | 1.22 ± 0.91
KHM-1B | 0.335 ± 0.24
KHM-5M | 0.561
KINGS-1 | 2.75
KLE | 12.1 ± 8.9
KLM-1 | 1 ± 0.96
KLN 205 | 2.12

Test System | absolute IC50 [nM]
KM-12 | 3.65
KMM-1 | 0.515 ± 0.079
KMRC-1 | 1.26
KMRC-20 | 3.45
KMS-11 | 0.761 ± 0.19
KMS-12-PE | 0.433
KMS-21BM | 0.26 ± 0.051
KMS-26 | 0.0823 ± 0.024
KMS-27 | 0.164 ± 0.0027
KMS-28PE | 0.0647 ± 0.036
KMS-34 | 0.272 ± 0.27
KNS-62 | 1.4 ± 2.5
KNS-81 | 0.189
KP4 | 0.251 ± 0.14
KP-2 | 4.15
KP-3 | 2.41 ± 1.7
KP-3L | 2.69 ± 0.26
KP-N-SI9s | 0.0551
KP-N-YN | 0.0159
KPL-1 | 2.48 ± 1.5
KPP14388 | 0.96
KPP14388 LN | 0.49
KPP14449 | 1.53
KPP-1 (KPP-PDAC) XENOGRAFT | 0.168

Test System | absolute IC50 [nM]
KPR3070 | 1.35
KPR3351 | 0.931
KR7110 | 1.36
KR7251 | 0.557
KR7414 | 1.45
KURAMOCHI | 4.22
KYSE-30 | 0.368
KYSE-140 | 0.496
KYSE-150 | 0.194
KYSE-180 | 0.667
KYSE-270 | 0.409
KYSE-410 | 0.579
KYSE-450 | 0.564
KYSE-510 | 0.0686
KYSE-520 | 1.01
Kasumi-1 | 4.11
L-363 | 0.384 ± 0.54
LA-4 | 1.59
LCLC-97TM1 | 1.4
LCLC-103H | 1.11 ± 1.2
LL/2 | 0.449
